Source: paper PMC10899790, “A bromodomain-independent mechanism of gene regulation by the BET inhibitor JQ1: direct activation of nuclear receptor PXR” (Nucleic Acids Research, 2023)
Entries after “also recorded” stand apart in the source; their conditions may differ.

Assays:
HepG2 cells = assay: Cytotoxicity assay (CellTiter-Glo); assay type: cell-based, human; conditions: HepG2, 24 h
Procedure: HepG2 cells (1 × 10^4/well in 25 μl phenol red-free DMEM supplemented with 5% charcoal/dextran-treated FBS) were plated and treated as in the transactivation assays. After 24 h compound treatment, the CellTiter-Glo Luminescent Cell Viability Assay (Promega) and an EnVision microplate reader were used to assess cytotoxicity. DMSO wells with cells served as negative controls, and wells without cells served as positive controls. The averaged luminescence signal of the wells without cells was subtracted from the luminescence signals of all other wells, and the background subtracted values were normalized to DMSO-treated wells containing cells to obtain percent cell viability.

PXR LBD = target: T1, PXR LBD (Homo sapiens, UniProt O75469); assay: TR-FRET PXR LBD SRC-1 recruitment assay; assay type: biochemical; conditions: percent relative to 10 μM T0901317 and DMSO
T1 construct: GST-PXR LBD protein (cat. # PV4841) were purchased from Thermo Fisher Scientific; purchased Thermo Fisher Scientific PV4841
T1 sequence (O75469 146-433 limits assumed): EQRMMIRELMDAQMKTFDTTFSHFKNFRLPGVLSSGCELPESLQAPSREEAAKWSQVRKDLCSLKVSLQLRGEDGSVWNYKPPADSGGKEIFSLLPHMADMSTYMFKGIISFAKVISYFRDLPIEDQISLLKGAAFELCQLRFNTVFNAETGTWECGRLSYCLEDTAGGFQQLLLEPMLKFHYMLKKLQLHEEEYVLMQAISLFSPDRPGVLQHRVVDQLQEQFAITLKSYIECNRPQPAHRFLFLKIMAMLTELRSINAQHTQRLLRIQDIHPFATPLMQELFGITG
Procedure: The TR-FRET PXR LBD SRC-1 recruitment assay measures PXR LBD interaction with a fluorescently labeled SRC-1 peptide (Supplementary Figure S1) and was performed as previously described with minor modifications ([23]). […] FAM-SRC-1 peptide solution (15 μl/well, 133.3 nM in assay buffer) was dispensed into 384-well black low-volume assay plates. An Echo 650 Acoustic Liquid Handler then dispensed 60 nl/well of compound stocks or DMSO. […] The plates were shaken at 900 rpm (80 × g) on an IKA MTS 2/4 digital microtiter shaker for 1 min then centrifuged at 1000 rpm (201 × g) for 30 s in an Eppendorf 5810 centrifuge equipped with an A-4-62 swing-bucket rotor. The plates were protected from light exposure and incubated for 1 h at room temperature (RT). After incubation, the TR-FRET signal from each well was collected with a PHERAstar FS Microplate Reader (BMG Labtech). The measured relative fluorescence units (RFU) were normalized for each well using equation (2),

[1] = LC–MS/MS test of JQ1 stability in crystallization solution; assay type: physicochemical; conditions: 1 μM JQ1, crystallization solution pH 7.4, 20°C
Procedure: An Echo 650 Acoustic Liquid Handler was used to dispense 50 nl/well of 1 mM JQ1 into 96-well assay plates (Corning Inc., one plate per time point, six replicate wells per time point). Crystallization solution (50 μl) was added to each well to yield final concentrations of 1 μM JQ1 and 0.1% DMSO. […] This composition matched the final composition of a crystallization drop containing a 1:1 ratio of protein to reservoir solution. To the 0-day plate, 100 μl cold acetonitrile (ACN) containing 400 ng/ml warfarin (Fluka Chemical Corporation) as the internal standard was immediately added to each well. The remaining plates were incubated at 20°C for 1–8 days followed by quenching with 100 μl cold ACN containing 400 ng/ml warfarin. Quenched samples were sealed and stored at -20°C until analysis. On the day of analysis, plates were thawed, shaken at 600 rpm for 10 min, and centrifuged at 2000 × g for 10 min. The supernatants (20 μl) were transferred to a new analytical 96-well plate (Corning Inc.) and diluted with 180 μl 50% ACN in Milli-Q water. Chromatographic separation was performed on an ACQUITY UPLC BEH C18 column (1.7 μm, 2.1 mm × 50 mm) (Waters Corporation) using the Triple Quad 6500 System (AB Sciex). The injection volume was 7 μl. […] Data were acquired using Analyst Software (AB Sciex, version 1.6.3) and analyzed using MultiQuant Software (AB Sciex, version 3.0.3).

PGK promoter = PGK promoter firefly luciferase reporter; assay type: cell-based, human; conditions: HepG2, 24 h
Procedure: HepG2 cells (7.5 × 10^5/well) were plated in six-well tissue culture-treated plates. The following day, cells were co-transfected with pGL3-CYP3A4-luc (2 μg/well), pRL-CMV (200 ng/well) and 100 ng/well of either empty vector (pcDNA3), pcDNA3-FLAG-PXR, pCMV6-mPXR or pGL4.53-PGK-PXR using Lipofectamine 3000 (Thermo Fisher Scientific). Twenty-four hours after transfection, cells were trypsinized and suspended in phenol red-free DMEM (Thermo Fisher Scientific) supplemented with 5% charcoal/dextran-treated FBS (HyClone), and 1 × 10^4 cells/well in 25 μl media were added to white 384-well plates. […] After 24 h, the Dual-Glo Luciferase Assay System (Promega) and EnVision microplate reader (PerkinElmer) were used to measure firefly and Renilla luciferase activities. CMV-driven Renilla luciferase was used as an indicator of general transcriptional modulation by the test compounds and is plotted as fold change (FC) relative to DMSO controls. Assays utilizing pGL4.54[luc2/TK], pGL4.53[luc2/PGK], or pGL4.13[luc2/SV40] were similarly performed and normalized.

CYP3A4 = assay: RNA induction in HepaRG: CYP3A4 mRNA (RT-qPCR); conditions: differentiated HepaRG, 24 h
Procedure: Experiments with HepaRG cells were conducted similarly to previously described ([45]), with modifications. HepaRG cells were seeded in collagen-coated 24-well plates at 5 × 10^5 cells/well in HCM. Cells were differentiated for two weeks with HCM containing 2% DMSO. The cells were then treated with the respective chemicals for 24 h in HCM. The final DMSO concentration for the treatment was 0.5%. Total RNA was isolated from cells with Maxwell 16 LEV SimplyRNA Tissue Kits (Promega), and cDNA was generated from 250 ng of RNA with the SuperScript VILO cDNA Synthesis Kit (Thermo Fisher Scientific). Quantitative real-time polymerase chain reaction (RT-qPCR) was conducted with 2 μl of cDNA using TaqMan Fast Advanced Master Mix (Applied Biosystems) in an Applied Biosystems 7500 Fast Real-Time PCR System. TaqMan gene expression assays specific for CYP3A4 (Hs00604506_m1), PXR (Hs01114267_m1), MYC (Hs00153408_m1) and RNA18S (Hs03928990_g1) were purchased from Thermo Fisher Scientific. Fold induction values were calculated according to the 2^−ΔΔCt method, where ΔCt represents the differences in cycle threshold numbers between the target gene and reference gene and ΔΔCt represents the relative change in these differences between the control and treatment groups ([46]). RNA18S was used as the reference gene for relative quantification of all other genes.

Cc1sc2c(c1C)C(c1ccc(Cl)cc1)=N[C@@H](CC(=O)OC(C)(C)C)c1nnc(C)n1-2 [JQ1, (+)-JQ1]
cytotoxicity (cell viability) (HepG2 cells): exhibited cytotoxicity at the concentrations required to activate the CYP3A4-luciferase reporter
recruitment of SRC-1 peptide to purified PXR LBD (PXR LBD): induced SRC-1 recruitment; also recorded: JQ1 > birabresib > CPI-203
stability in the crystal growth condition [1]: does not degrade over a period of eight days
PGK promoter-driven luciferase expression (PGK promoter): not positively modulated
endogenous CYP3A4 mRNA expression (CYP3A4; FC relative to DMSO): modestly induced CYP3A4 mRNA
endogenous CYP3A4 mRNA expression on co-treatment with SPA70 (CYP3A4; co-treated with SPA70): largely diminished
